The results in this text go back to patent publication US11045453B1 (priority 2020, dated 2021).

In general, Ki refers to a dissociation constant, usually derived from enzyme kinetics or from competition with a known ligand. As usually defined, the IC50 is the concentration needed to halve the response being measured.

Entries after “also recorded” stand apart in the source; their conditions may differ.

The subject of assay [1] is SARS-CoV-2 clinical isolate (2019-nCoV/USA-WA1/2020). In kind it is cell-based.
The test system of assay [2] is VSVpp+SARS-2-S Δ18 in Vero-E6 cells. In kind it is cell-based, African green monkey.
The target of assay [3] is Human Trypsin-6 (Homo sapiens, UniProt Q8NHM4). Description: Ki determination, chromogenic substrate cleavage. In kind it is biochemical. Conditions: read-out: Ki Mean ± SD (n).
Assay [4] concerns the target T1, Human TMPRSS11(A) (Homo sapiens, UniProt Q6ZMR5).
T1 construct: purchased MyBioSource MBS1345824; host or cells: mammalian expression system
Put plainly: Ki determination, chromogenic substrate cleavage. Format: biochemical. The settings on record: read-out: Ki Mean ± SD (n). How it is done: The Ki was determined to be 0.39±0.01 (3) μM.

In assay [5] the target is Human Enterokinase (Homo sapiens, UniProt P98073). Put plainly: Ki determination, chromogenic substrate cleavage. In kind it is biochemical. Conditions: read-out: Ki Mean ± SD (n).
Assay [6] has as its target T2, Human Thrombin (Homo sapiens, UniProt P00734).
T2 construct: Human Thrombin
Description: Ki determination, chromogenic substrate cleavage. In kind it is biochemical. Conditions: read-out: Ki Mean ± SD (n).

Assay [7] addresses Human uPA (Homo sapiens, UniProt P00749). Put plainly: Ki determination, chromogenic substrate cleavage. Format: biochemical. Conditions: read-out: Ki Mean ± SD (n).
For assay [8], the target named is T3, Human FXIa (Homo sapiens, UniProt P03951).
T3 construct: Human FXIa
Description: Ki determination, chromogenic substrate cleavage. The settings on record: read-out: Ki Mean ± SD (n). In kind it is biochemical.

Assay [9] concerns the target T4, Human two-chain tPA (Homo sapiens, UniProt P00750).
T4 construct: Human two-chain tPA
Description: Ki determination, chromogenic substrate cleavage. In kind it is biochemical. Conditions: read-out: Ki Mean ± SD (n).

In assay [10] the target is Human HAT (Homo sapiens, UniProt O60235). Put plainly: Ki determination, chromogenic substrate cleavage. Format: biochemical. The settings on record: read-out: Ki Mean ± SD (n).
Assay [11] deals with T5, Human Plasmin (Homo sapiens, UniProt P00747).
T5 construct: Human Plasmin
Put plainly: Ki determination, chromogenic substrate cleavage. Format: biochemical. Conditions: read-out: Ki Mean ± SD (n).

For assay [12], the target named is T6, Human FIXa (Homo sapiens, UniProt P00740).
T6 construct: Human FIXa
Description: Ki determination, chromogenic substrate cleavage. Conditions: read-out: Ki Mean ± SD (n). Format: biochemical.

In assay [13] the target is T7, Human Fxa (Homo sapiens, UniProt P00742).
T7 construct: Human Fxa
Put plainly: Ki determination, chromogenic substrate cleavage. The settings on record: read-out: Ki Mean ± SD (n). Format: biochemical.

Assay [14] addresses T8, Human TMPRSS2 (Homo sapiens, UniProt O15393).
T8 construct: purchased MyBioSource MBS1193731; host or cells: mammalian expression system
Description: Ki determination, chromogenic substrate cleavage. In kind it is biochemical. Conditions: read-out: Ki Mean ± SD (n). How it is done: The Ki was determined to be 2.9±0.04 (3) μM.

Assay [15] concerns the target Human C1s (Homo sapiens, UniProt P09871). Description: Ki determination, chromogenic substrate cleavage. Format: biochemical. Conditions: read-out: Ki Mean ± SD (n).
Assay [16] has as its target Human Activated Protein C (Homo sapiens, UniProt P04070). Description: Ki determination, chromogenic substrate cleavage. In kind it is biochemical. Conditions: read-out: Ki Mean ± SD (n).
The target of assay [17] is Human Hepsin (Homo sapiens, UniProt P05981). Put plainly: Ki determination, chromogenic substrate cleavage. Format: biochemical. Conditions: read-out: Ki Mean ± SD (n).
Assay [18] addresses Human Matriptase-2 (Homo sapiens, UniProt Q8IU80). Put plainly: Ki determination, chromogenic substrate cleavage. Format: biochemical. The settings on record: read-out: Ki Mean ± SD (n).
Assay [19] concerns the target Human Spinesin (Homo sapiens, UniProt Q9H3S3). Description: Ki determination, chromogenic substrate cleavage. Format: biochemical. The settings on record: read-out: Ki Mean ± SD (n).
The target in assay [20] is Human DESC-1 (Homo sapiens, UniProt Q9UL52). Description: Ki determination, chromogenic substrate cleavage. Format: biochemical. The settings on record: read-out: Ki Mean ± SD (n).
Assay [21] concerns the target Human PRSS27 (Homo sapiens, UniProt Q9BQR3). Put plainly: Protease inhibition (IC50), chromogenic substrate cleavage. In kind it is biochemical. Conditions: listed as marked (IC50) in the Ki column, read-out: IC50 Mean ± SD (n).
The target of assay [22] is Human Plasma Kallikrein (Homo sapiens, UniProt P03952). Put plainly: Ki determination, chromogenic substrate cleavage. Format: biochemical. Conditions: read-out: Ki Mean ± SD (n).
For assay [23], the target named is Human HGFA (Homo sapiens, UniProt Q04756). Put plainly: Ki determination, chromogenic substrate cleavage. Format: biochemical. Conditions: read-out: Ki Mean ± SD (n).
For assay [24], the target named is Human Granzyme A (Homo sapiens, UniProt P12544). Description: Ki determination, chromogenic substrate cleavage. Format: biochemical. The settings on record: read-out: Ki Mean ± SD (n).
Assay [25] concerns the target Human Kallikrein-8 (Homo sapiens, UniProt O60259). Description: Ki determination, chromogenic substrate cleavage. In kind it is biochemical. The settings on record: read-out: Ki Mean ± SD (n).
Assay [26] has as its target Human Kallikrein-1 (Homo sapiens, UniProt P06870). Description: Ki determination, chromogenic substrate cleavage. Format: biochemical. The settings on record: read-out: Ki Mean ± SD (n).
Assay [27] concerns the target Human Kallikrein-11 (Homo sapiens, UniProt Q9UBX7). Put plainly: Ki determination, chromogenic substrate cleavage. Format: biochemical. Conditions: read-out: Ki Mean ± SD (n).
Assay [28] addresses Human Prostasin (Homo sapiens, UniProt Q16651). Put plainly: Protease inhibition (IC50), chromogenic substrate cleavage. Conditions: listed as marked (IC50) in the Ki column, read-out: IC50 Mean ± SD (n). Format: biochemical.
Assay [29] has as its target Rat uPA (Rattus norvegicus, UniProt P29598). Description: Ki determination, chromogenic substrate cleavage. In kind it is biochemical. The settings on record: read-out: Ki Mean ± SD (n).
The target of assay [30] is Bovine Cationic Trypsin-1 (Bos taurus, UniProt P00760). Description: Ki determination, chromogenic substrate cleavage. The settings on record: read-out: Ki Mean ± SD (n). Format: biochemical.
In assay [31] the target is Rabbit uPA (Oryctolagus cuniculus, UniProt Q8MHY7). Description: Ki determination, chromogenic substrate cleavage. In kind it is biochemical. The settings on record: read-out: Ki Mean ± SD (n).
The target in assay [32] is Human uPA (Q192A in medium) (Homo sapiens, UniProt P00749, Q373A). Put plainly: Ki determination, chromogenic substrate cleavage. Format: biochemical. The settings on record: read-out: Ki Mean ± SD (n).
The target in assay [33] is Human uPA (H99A in medium) (Homo sapiens, UniProt P00749, H272A). Description: Ki determination, chromogenic substrate cleavage. In kind it is biochemical. The settings on record: read-out: Ki Mean ± SD (n).
The target in assay [34] is Mouse uPA (Mus musculus, UniProt P06869). Put plainly: Ki determination, chromogenic substrate cleavage. Format: biochemical. Conditions: read-out: Ki Mean ± SD (n).
The test system of assay [35] is VSVpp+SARS-2-S Δ18 in Calu-3 cells. In kind it is cell-based, human.
Assay [36] relates to VSV-G pseudotypes in Calu-3 cells. Format: cell-based, human.
For assay [37], the target named is Human Trypsin-3 (Homo sapiens, UniProt P35030). Put plainly: biochemical.
Assay [38] addresses Human Trypsin-2 (Homo sapiens, UniProt P07478). Description: biochemical.
Assay [39] deals with Human Trypsin-1 (Homo sapiens, UniProt P07477). Put plainly: biochemical.

Chain of Human Matriptase-2 (Q8IU80 whole entry): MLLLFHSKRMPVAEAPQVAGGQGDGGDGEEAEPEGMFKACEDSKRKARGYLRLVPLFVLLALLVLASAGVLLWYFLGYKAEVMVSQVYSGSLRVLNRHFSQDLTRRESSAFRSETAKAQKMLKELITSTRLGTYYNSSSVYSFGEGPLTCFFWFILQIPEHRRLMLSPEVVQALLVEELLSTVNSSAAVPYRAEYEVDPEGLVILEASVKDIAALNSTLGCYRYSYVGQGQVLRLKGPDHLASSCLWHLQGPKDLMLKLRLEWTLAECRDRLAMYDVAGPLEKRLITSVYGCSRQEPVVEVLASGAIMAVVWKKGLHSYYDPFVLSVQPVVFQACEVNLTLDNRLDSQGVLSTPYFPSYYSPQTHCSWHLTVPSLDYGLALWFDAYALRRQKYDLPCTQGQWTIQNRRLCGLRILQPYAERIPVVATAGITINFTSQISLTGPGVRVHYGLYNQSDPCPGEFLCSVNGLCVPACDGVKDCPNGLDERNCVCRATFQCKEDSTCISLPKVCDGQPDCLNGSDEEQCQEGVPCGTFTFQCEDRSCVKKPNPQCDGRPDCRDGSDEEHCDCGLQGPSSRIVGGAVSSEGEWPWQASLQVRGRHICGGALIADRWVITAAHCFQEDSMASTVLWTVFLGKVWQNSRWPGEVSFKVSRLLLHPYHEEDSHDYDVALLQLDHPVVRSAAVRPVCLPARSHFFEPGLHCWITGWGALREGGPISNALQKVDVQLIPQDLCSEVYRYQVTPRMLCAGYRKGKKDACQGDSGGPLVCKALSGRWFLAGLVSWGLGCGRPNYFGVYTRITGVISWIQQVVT
T8 sequence (O15393 whole entry): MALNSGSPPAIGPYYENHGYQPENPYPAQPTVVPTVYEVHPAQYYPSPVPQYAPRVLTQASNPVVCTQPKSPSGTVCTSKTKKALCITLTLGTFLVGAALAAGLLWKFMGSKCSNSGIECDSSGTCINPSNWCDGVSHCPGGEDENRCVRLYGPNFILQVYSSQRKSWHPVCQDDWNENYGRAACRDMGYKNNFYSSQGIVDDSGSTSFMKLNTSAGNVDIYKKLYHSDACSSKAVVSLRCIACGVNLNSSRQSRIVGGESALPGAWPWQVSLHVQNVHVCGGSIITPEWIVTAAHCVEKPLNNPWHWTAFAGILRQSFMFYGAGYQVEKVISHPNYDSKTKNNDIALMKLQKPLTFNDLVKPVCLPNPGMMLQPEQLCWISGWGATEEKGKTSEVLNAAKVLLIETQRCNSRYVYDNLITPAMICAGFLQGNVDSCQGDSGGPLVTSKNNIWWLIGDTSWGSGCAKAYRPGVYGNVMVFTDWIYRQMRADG
Chain of Human Plasma Kallikrein (P03952 20-638): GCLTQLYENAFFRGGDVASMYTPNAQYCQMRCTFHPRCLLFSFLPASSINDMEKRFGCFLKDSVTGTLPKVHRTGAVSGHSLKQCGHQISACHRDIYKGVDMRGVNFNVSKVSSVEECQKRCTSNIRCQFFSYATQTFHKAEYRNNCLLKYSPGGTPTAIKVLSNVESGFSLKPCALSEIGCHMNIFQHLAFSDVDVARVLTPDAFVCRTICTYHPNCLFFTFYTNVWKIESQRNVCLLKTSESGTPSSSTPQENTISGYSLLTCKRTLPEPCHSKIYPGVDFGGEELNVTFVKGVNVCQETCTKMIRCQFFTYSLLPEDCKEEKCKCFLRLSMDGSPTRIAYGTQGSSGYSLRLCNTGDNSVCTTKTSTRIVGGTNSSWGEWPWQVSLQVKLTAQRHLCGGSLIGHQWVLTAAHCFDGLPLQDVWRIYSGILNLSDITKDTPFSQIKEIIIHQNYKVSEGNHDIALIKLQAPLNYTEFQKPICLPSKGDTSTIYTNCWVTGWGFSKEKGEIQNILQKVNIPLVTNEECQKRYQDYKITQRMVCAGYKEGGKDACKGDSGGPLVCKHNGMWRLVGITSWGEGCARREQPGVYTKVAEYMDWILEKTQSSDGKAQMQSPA
T5 sequence (P00747 581-810 limits assumed): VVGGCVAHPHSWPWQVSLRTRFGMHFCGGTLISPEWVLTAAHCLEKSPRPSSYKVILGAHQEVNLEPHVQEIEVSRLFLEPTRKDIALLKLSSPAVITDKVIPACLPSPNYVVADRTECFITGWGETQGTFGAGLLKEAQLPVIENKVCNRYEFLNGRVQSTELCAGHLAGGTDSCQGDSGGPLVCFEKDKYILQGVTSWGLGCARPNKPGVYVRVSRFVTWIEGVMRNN
T5 sequence (P00747 97-580 partner limits assumed): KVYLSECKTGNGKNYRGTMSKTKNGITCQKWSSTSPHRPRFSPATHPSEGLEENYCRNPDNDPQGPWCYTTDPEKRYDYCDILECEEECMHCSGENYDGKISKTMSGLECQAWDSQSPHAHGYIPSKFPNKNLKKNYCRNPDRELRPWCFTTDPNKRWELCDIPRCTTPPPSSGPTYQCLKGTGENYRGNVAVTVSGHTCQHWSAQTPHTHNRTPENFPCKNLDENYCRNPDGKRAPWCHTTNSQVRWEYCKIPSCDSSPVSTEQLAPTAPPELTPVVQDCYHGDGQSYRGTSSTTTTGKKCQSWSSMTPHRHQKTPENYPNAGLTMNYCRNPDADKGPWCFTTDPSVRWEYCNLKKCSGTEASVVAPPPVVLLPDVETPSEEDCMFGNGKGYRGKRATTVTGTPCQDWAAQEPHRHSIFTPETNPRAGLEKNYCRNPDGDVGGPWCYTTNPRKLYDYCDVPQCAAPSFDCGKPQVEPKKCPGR
Chain of Human PRSS27 (Q9BQR3 35-290): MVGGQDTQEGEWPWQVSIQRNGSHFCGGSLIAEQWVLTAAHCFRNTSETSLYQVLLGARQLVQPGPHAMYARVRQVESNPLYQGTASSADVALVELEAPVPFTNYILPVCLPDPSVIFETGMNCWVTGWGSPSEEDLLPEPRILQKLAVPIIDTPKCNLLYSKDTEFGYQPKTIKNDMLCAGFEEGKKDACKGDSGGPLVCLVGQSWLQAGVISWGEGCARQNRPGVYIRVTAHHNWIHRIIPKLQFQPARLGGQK
T6 sequence (P00740 227-461 limits assumed): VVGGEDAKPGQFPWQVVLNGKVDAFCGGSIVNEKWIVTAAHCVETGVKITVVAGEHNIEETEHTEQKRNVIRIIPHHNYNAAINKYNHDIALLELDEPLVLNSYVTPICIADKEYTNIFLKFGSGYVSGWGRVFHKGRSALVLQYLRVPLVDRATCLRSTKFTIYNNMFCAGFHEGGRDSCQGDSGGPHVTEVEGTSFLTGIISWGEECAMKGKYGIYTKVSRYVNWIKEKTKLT
T6 sequence (P00740 47-191 partner limits assumed): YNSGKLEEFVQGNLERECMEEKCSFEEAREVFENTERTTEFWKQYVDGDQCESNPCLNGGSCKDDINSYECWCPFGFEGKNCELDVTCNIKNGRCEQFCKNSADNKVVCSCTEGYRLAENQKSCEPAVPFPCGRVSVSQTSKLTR
Chain of Human HGFA (Q04756 373-655): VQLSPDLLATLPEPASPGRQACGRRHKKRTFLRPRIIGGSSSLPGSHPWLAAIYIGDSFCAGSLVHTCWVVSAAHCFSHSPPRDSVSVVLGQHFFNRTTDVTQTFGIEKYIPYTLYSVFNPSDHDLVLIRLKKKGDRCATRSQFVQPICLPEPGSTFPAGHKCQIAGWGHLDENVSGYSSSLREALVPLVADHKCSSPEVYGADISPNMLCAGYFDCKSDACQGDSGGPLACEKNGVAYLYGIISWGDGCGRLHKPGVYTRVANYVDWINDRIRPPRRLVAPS
Chain of Rat uPA (P29598 20-432): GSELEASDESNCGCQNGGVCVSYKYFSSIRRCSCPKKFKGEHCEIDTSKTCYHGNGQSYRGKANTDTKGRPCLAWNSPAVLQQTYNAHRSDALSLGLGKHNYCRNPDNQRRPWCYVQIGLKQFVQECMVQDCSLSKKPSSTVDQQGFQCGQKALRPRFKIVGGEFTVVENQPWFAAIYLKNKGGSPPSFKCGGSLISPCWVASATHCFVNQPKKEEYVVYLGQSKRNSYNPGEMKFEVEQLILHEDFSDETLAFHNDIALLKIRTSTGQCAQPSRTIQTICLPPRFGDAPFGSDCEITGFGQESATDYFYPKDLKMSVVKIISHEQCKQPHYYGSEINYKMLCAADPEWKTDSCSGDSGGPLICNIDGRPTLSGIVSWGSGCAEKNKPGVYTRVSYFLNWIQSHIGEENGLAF
Chain of Human HAT (O60235 whole entry): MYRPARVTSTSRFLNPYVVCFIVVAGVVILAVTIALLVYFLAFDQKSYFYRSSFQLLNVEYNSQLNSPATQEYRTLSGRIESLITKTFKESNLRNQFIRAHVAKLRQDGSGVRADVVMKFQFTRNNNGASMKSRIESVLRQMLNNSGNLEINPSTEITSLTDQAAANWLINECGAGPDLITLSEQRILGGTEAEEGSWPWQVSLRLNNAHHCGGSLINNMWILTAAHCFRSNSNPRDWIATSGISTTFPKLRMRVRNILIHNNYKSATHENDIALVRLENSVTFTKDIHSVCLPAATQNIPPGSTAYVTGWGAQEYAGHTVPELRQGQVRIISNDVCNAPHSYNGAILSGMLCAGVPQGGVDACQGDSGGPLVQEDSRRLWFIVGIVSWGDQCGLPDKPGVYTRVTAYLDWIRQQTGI
Chain of Human Kallikrein-8 (O60259 33-260): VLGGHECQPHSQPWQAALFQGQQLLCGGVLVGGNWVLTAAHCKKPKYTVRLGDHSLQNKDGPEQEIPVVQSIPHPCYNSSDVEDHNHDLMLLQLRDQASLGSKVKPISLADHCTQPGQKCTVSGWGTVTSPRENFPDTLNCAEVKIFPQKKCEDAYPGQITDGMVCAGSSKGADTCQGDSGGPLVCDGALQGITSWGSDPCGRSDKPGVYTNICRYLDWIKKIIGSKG
Chain of Bovine Cationic Trypsin-1 (P00760 24-246): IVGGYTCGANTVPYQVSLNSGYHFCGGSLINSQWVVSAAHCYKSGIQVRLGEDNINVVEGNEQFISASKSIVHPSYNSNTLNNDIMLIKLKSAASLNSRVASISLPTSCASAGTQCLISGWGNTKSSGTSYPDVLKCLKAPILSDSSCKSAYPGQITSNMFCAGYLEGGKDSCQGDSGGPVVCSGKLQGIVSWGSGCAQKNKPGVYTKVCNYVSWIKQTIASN

For the compound “4-[[4-[(Aminoiminomethyl)amino]benzoyl]oxy] benzeneacetic acid 2-(dimethylamino)-2-oxoethyl ester methanesulfonate [camostat, reference compound]”, the “antiviral activity / viral replication” value in [1] was “inhibited”. Besides, the “inhibition of SARS-2-S-driven pseudotype entry” value in assay [2] was “inactive”.

As to `CCOC(=O)N1CCN(C(=O)[C@H](Cc2cccc(C(=N)N)c2)NS(=O)(=O)c2c(C(C)C)cc(C(C)C)cc2C(C)C)CC1` [WX-UK1, N-α-(2,4,6-triisopropylphenylsulfonyl)-3-amidino-phenylalanine-4-ethoxycarbonylpiperazide], the Ki is 100 ± 10 nM in assay [3]; 390 ± 10 nM in assay [4]; 710 ± 40 nM in [5]; 800 ± 100 nM in assay [6]; 900 ± 100 nM in [7]; 900 ± 100 nM in [8]. The inhibition constant (Ki) came out at 1400 ± 100 nM in assay [9]; 1500 ± 100 nM in assay [10]; 2400 ± 300 nM in assay [11]; 2500 ± 200 nM in assay [12]; 2600 ± 400 nM in [13]; 2900 ± 40 nM in [14]. Further, the Ki amounted to 3100 ± 400 nM in assay [15]; 3900 ± 200 nM in [16]; 4300 ± 500 nM in assay [17]; 6400 ± 300 nM in [18]; 7700 ± 500 nM in assay [19]; 13000 ± 2000 nM in assay [20]. Also, the Ki in assay [22] is 26000 ± 1000 nM; in assay [23] it was 28000 ± 5000 nM; in assay [24], more than 250000 nM; in assay [25], more than 250000 nM; in assay [26], more than 250000 nM; in assay [27] it was more than 250000 nM. For the same compound, the Ki is 400 ± 100 nM in assay [29]; 500 ± 100 nM in [30]; 800 ± 100 nM in assay [31]; 2900 ± 100 nM in [32]; 14000 ± 400 nM in [33]; 45000 ± 6000 nM in assay [34]. The Ki in [37] was 19 ± 4 nM; in assay [38] it was 75 ± 3 nM; in assay [39], 190 ± 10 nM. Moreover, the IC50 in [21] was 19000 ± 4000 nM; in [28] it was more than 250000 nM. For the same compound, in [1], the “antiviral activity / viral replication” value is reported as “potent antiviral activity; also recorded: inhibited”. Also, the “infectious virus production, TCID50 assay in apical washes” value in [1] is recorded as “dose-dependent reduction”. In [1] (lowest concentration 3.33 μg/ml, […]), the “reduction in viral load by TCID50” value was 4 log. Further, the “inhibition of SARS-2-S-driven pseudotype entry” value in assay [35] and in assay [2] was “moderate inhibitory activity” throughout. The “inhibition of VSV-G entry” value in assay [36] was “moderately inhibited”.

Take `CCN(CC)CCCC(C)Nc1ccnc2cc(Cl)ccc12` (centres unmarked) [chloroquine]: the “inhibition of S protein-driven entry” value in [2] is on record as “potently inhibited”.
